Series [1] has as its system HCV genotype 1b luciferase reporter replicon. Nature of the series: microbe, parasite or virus in culture. The format is cell-based. The settings on record: Hepatitis C virus, HuH-7-Luc/Neo-ET, 72 h, read-out: HCV Replicon EC50/EC95: EC50.
The test system is the same in series [2]. Kind of series: microbe, parasite or virus in culture. To be noted: Hepatitis C virus; Huh-7 luc/neo ET cells, 72 hours, luciferase; read-out: HCV Replicon EC50/EC95: EC95. The format is cell-based. The procedure: (§1) The plates were cultured for 24 hours prior to the addition of compounds. Six serial one half log dilutions of the test articles (high test concentration of 100.0 μM or high test concentration of 1.0 μM) and human interferon-alpha2b (high test 10.0 U/ml) were prepared in cell culture medium and added to the cultured cells in triplicate wells for each dilution. Six wells in the test plates received medium alone as an untreated control. Following 72 hours of culture in the presence of compound, one of the plates was used for the determination of cytotoxicity by staining with XTT and the other for antiviral efficacy by determination of luciferase reporter activity. Cytotoxicity and efficacy data were collected and imported into a customized Excel workbook for determination of the TC50 and EC50 values. […] The y-axis is the percent of virus control and the x-axis is the concentration of drug in μM. […] The y-axis is the percent of virus control and the x-axis is the concentration of drug in M.

Series [3] is described as follows: Cytotoxicity by XTT staining in replicon cells. To be noted: human. As for the experimental part:
as §1
(Tetrazolium assays rely on reduction of a dye to a coloured formazan, in cell work by metabolically active cells.)

Results on ten compounds are retold here after patent US12084473B2, “β-D-2′-deoxy-2′-α-fluoro-2′-β-C-substituted-2-modified-N6-substituted purine nucleotides for HCV treatment” (Atea Pharmaceuticals, Inc., priority 2015, dated 2024).

By CC50 is commonly meant the concentration giving 50% cytotoxicity.

For `CCN(C)c1nc(N)nc2c1ncn2[C@@H]1OC(COP(=O)(N[C@@H](C)C(=O)OC(C)C)Oc2ccccc2)[C@@H](O)[C@@]1(C)F` (stereo partly drawn) [Compound 18, isopropyl ((((R,S)-(2R,3R,4R,5R)-5-(2-amino-6-(N-methyl-ethylamino)-9H-purin-9-yl)-4-fluoro-3-hydroxy-4-methyltetrahydrofuran-2-yl)methoxy)-phenoxy-phosphoryl)-L-alaninate], the EC50 in series [1] worked out at 0.048 µM. Also, the EC95 in series [2] was 0.219 µM. In series [3], this compound displayed a CC50 at 72 h of 90 µM.
The like results for `CCCN(C)c1nc(N)nc2c1ncn2[C@@H]1OC(COP(=O)(N[C@@H](C)C(=O)OC(C)C)Oc2ccccc2)[C@@H](O)[C@@]1(C)F` (stereo partly drawn) [Compound 20, isopropyl ((((R,S)-(2R,3R,4R,5R)-5-(2-amino-6-(N-methyl-propylamino)-9H-purin-9-yl)-4-fluoro-3-hydroxy-4-methyltetrahydrofuran-2-yl)methoxy)-phenoxy-phosphoryl)-L-alaninate] were, in that order, 0.073 µM, 0.315 µM and above 100 µM.
For `CC(C)OC(=O)[C@H](C)N[P@@](=O)(OCC1O[C@@H](n2cnc3c(N(C)C)nc(N)nc32)[C@](C)(F)[C@@H]1O)Oc1ccccc1` (stereo partly drawn) [Compound 26, isopropyl ((((R)-(2R,3R,4R,5R)-5-(2-amino-6-(dimethylamino)-9H-purin-9-yl)-4-fluoro-3-hydroxy-4-methyltetrahydrofuran-2-yl)methoxy)-phenoxy-phosphoryl)-L-alaninate] the same measures were 0.0351 µM, 0.057 µM and above 100 µM.
As for `CC(C)OC(=O)[C@H](C)N[P@@](=O)(OCC1O[C@@H](n2cnc3c(N(C)C4CC4)nc(N)nc32)[C@](C)(F)[C@@H]1O)Oc1ccccc1` (stereo partly drawn) [Compound 28, isopropyl ((((R)-(2R,3R,4R,5R)-5-(2-amino-6-(methylcyclopropanamino)-9H-purin-9-yl)-4-fluoro-3-hydroxy-4-methyltetrahydrofuran-2-yl)methoxy)-phenoxy-phosphoryl)-L-alaninate], in series [1], the EC50 worked out at 0.014 µM. The EC95 in series [2] was 0.076 µM. The compound also gave a CC50 at 72 h in series [3] above 100 µM.
`C#C[C@@]1(F)[C@H](O)[C@@H](CO)O[C@H]1n1cnc2c(N(C)C)nc(N)nc21` [Compound 41]: the EC50 in series [1] came out at 0.508 µM. For the same compound, in series [2], the EC95 amounted to 25.1 µM. The CC50 at 72 h in series [3] is 21.8 µM.
For `C#C[C@@]1(F)[C@H](O)[C@@H](CO)O[C@H]1n1cnc2c(NC)nc(N)nc21` [Compound 42] the same measures were 4.18 µM, 20.4 µM and above 100 µM.
With `C#C[C@@]1(F)[C@H](O)[C@@H](CO)O[C@H]1n1cnc2c(N(C)C3CC3)nc(N)nc21` [Compound 43], in series [1], the EC50 is 6.43 µM. Besides, the EC95 in series [2] turned out to be 24.7 µM. Moreover, the CC50 at 72 h in series [3] came to 21.6 µM.
`C#C[C@@]1(F)[C@H](O)C(COP(=O)(N[C@@H](C)C(=O)OC(C)C)Oc2ccccc2)O[C@H]1n1cnc2c(N(C)C)nc(N)nc21` (stereo partly drawn) [Compound 45, isopropyl ((((R,S)-(2R,3R,4R,5R)-5-(2-amino-6-dimethylamino-9H-purin-9-yl)-4-fluoro-3-hydroxy-4-ethynyltetrahydrofuran-2-yl)methoxy)-phenoxy-phosphoryl)-L-alaninate]: in series [1], the EC50 is 0.16 µM. In series [2], the EC95 amounted to 0.876 µM. Moreover, the midpoint of cytotoxicity in series [3], the CC50 at 72 h, lay at 0.68 µM.
As to `C#C[C@@]1(F)[C@H](O)C(COP(=O)(N[C@@H](C)C(=O)OC(C)C)Oc2ccccc2)O[C@H]1n1cnc2c(NC)nc(N)nc21` (stereo partly drawn) [Compound 46, isopropyl ((((R,S)-(2R,3R,4R,5R)-5-(2-amino-6-methylamino-9H-purin-9-yl)-4-fluoro-3-hydroxy-4-ethynyltetrahydrofuran-2-yl)methoxy)-phenoxy-phosphoryl)-L-alaninate], the EC50 in series [1] is 0.224 µM. Besides, in series [2], the EC95 worked out at 0.961 µM. Also, the CC50 at 72 h in series [3] was above 100 µM.
Take `C#C[C@@]1(F)[C@H](O)C(COP(=O)(N[C@@H](C)C(=O)OC(C)C)Oc2ccccc2)O[C@H]1n1cnc2c(N(C)C3CC3)nc(N)nc21` (stereo partly drawn) [Compound 47, isopropyl ((((R,S)-(2R,3R,4R,5R)-5-(2-amino-6-(N-methylcyclopropylamino)-9H-purin-9-yl)-4-fluoro-3-hydroxy-4-ethynyltetrahydrofuran-2-yl)methoxy)-phenoxy-phosphoryl)-L-alaninate]: the EC50 in series [1] came out at 0.338 µM. In addition, the EC95 in series [2] was 1.72 µM. Besides, the midpoint of cytotoxicity in series [3], the CC50 at 72 h, lay at 1.68 µM.
